In patent publication US7125955B2, “NIMA interacting proteins” (The Salk Institute for Biological Studies, priority 1995, dated 2006):

Biological target: T1, Pin1 (Homo sapiens, UniProt Q13526)
T1 construct: PTPI-PIN1 directs the synthesis of the native full length Pin1 protein; (His)6 (N); made in house; host or cells: E. coli BL21
Assay: PPIase assay: inhibition of Pin1 PPIase activity
Type: biochemical
Details: even at 25 μM
Experimental: PPIase activity of the purified recombinant proteins was assayed using the procedure of Heitman et al. (Methods, 5:176, 1993) with the following exceptions. The reaction was carried out 5° C. and chymotrypsin was added just before the peptide substrate (N-Succ-Ala-Pro-Phe-p-nitroanilide, Sigma). The cis to trans isomerization was monitored every 6 seconds by a change in the absorbance at 395 nm using DMS 2000 UV and Visible Spectrophotometer (Varian). FKBP, cyclosporin A and FK520, a FK506 derivative, were gifts of D. Schultz and C. Zuker; University of California, San Diego.
Because of the strong sequence in similarity between Pin1 and the third PPIase family, Pin was tested to determine if Pin could catalyze the cis/trans isomerization of peptidyl-prolyl peptide bonds in vitro, a characteristic of PPIase. Pin1 was expressed in bacteria with an N-terminal (His)6 tag and was purified from bacteria using a […] agarose column. […] The isomerase activity was measured as described in Example 1. The cis to trans isomerization was monitored every 6 seconds by a change in the absorbance at 395 nm, with the finally stable absorbance of each sample being set at 1.0. Different concentrations of Pin1 were used as indicated, with the recombinant FK506-binding protein (FKBP) PPIase being used as a positive control. The control sample contained all the ingredients except the PPIase. […]

T1 sequence (Q13526 whole entry): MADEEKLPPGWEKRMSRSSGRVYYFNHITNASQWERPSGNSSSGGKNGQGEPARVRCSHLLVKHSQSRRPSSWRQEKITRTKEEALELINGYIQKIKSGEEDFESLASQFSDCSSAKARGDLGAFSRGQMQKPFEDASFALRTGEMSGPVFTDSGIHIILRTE

inhibition of the PPIase activity of Pin1: not inhibited
SMILES: CC[C@@H]1/C=C(\C)C[C@H](C)C[C@H](OC)[C@H]2O[C@@](O)(C(=O)C(=O)N3CCCC[C@H]3C(=O)O[C@H](/C(C)=C/[C@@H]3CC[C@@H](O)[C@H](OC)C3)[C@H](C)[C@@H](O)CC1=O)[C@H](C)C[C@@H]2OC [FK520]
